# Test results as given in ChEMBL document CHEMBL1201862, “PubChem BioAssay data set” (2004).
# The source made the active and inactive calls.
# What was measured:
# MDCK [1] = test: MDCK cell cytotoxicity, dose response, cytotoxicity control (AID 540296); format: functional; settings: Canis lupus familiaris
# MDCK [2] = test: antiviral activity against H1N1 influenza, dose response, cell-based, strain KY180 (AID 540254); format: functional; settings: Canis lupus familiaris
# Cytochrome P450 3A4 = Cytochrome P450 3A4 (Homo sapiens, UniProt P08684);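 also: CYP3A4 tested as one member of a cytochrome P450 panel screen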
# [3] = viability loss of HMLE_sh_eGFP cells – cell-based, luminescence, counter-screen for HMLE_sh_ECad selective toxicity project, dose response (AID 463074); format: functional, Homo sapiens;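 also: HMLE human mammary epithelial cells expressing control shRNA against eGFP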
# [4] = Luminescence Cell-Based Dose Retest to Confirm Inhibitors of Cancer Stem Cells. [Related pubchem assays (depositor defined):AID2717, AID2721]; format: functional; settings: Homo sapiens
# [5] = Luminescence Cell-Based Dose Confirmation HTS to Identify Inhibitors of Platelet Dense Granule Release. [Related pubchem assays: 1663 (Primary HTS), 1678 (Summary of Project)]; format: functional
# [6] = blockers of SFLLRN-triggered platelet ATP secretion – cell-based, human platelets, luminescence, dry powder, dose response (AID 493100); format: functional
# [7] = PAR1 agonist-induced platelet activation inhibition – cell-based, fluorescence, flow cytometry, human platelets, dose response (AID 2511); format: functional
# [8] = Luminescence Cell-Based Dose Response Follow up to Identify Inhibitors of Platelet Dense Granule Release. [Related pubchem assays (depositor defined):AID1663, AID1678, AID1889, AID2519]; format: functional
# [9] = SFLLRN-induced P-Selectin Platelet Surface Expression Measured in Cell-Based System Using Flow Cytometry - 2016-03_Inhibitor_Dose_DryPowder_Activity_Set3. [Related pubchem assays (depositor defined):AID1678]; format: functional
# [10] = biological target: Luciferin 4-monooxygenase (Photinus pyralis, UniProt P08659); test: inhibition of purified Photinus pyralis luciferase – biochemical, luminescence, dose response (AID 1891)
# [11] = biological target: Heat shock protein HSP 90-alpha (Homo sapiens, UniProt P07900); format: functional, organism-based
# [12] = biological target: T1, Heat shock factor protein 1 (Mus musculus, UniProt P38532); test: enhancement of HSF1-driven luciferase signal – cell-based, NIH3T3, luminescence, dose retest, confirmation (AID 435004); format: functional;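 also: stress induced by proteasome inhibitor MG132 added 30 min after compound; luciferase reporter driven by HSF1 response element in NIH3T3 cells; actives raise luminescence as potentiators of the MG132 stress response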
# T1 sequence (P38532 whole entry): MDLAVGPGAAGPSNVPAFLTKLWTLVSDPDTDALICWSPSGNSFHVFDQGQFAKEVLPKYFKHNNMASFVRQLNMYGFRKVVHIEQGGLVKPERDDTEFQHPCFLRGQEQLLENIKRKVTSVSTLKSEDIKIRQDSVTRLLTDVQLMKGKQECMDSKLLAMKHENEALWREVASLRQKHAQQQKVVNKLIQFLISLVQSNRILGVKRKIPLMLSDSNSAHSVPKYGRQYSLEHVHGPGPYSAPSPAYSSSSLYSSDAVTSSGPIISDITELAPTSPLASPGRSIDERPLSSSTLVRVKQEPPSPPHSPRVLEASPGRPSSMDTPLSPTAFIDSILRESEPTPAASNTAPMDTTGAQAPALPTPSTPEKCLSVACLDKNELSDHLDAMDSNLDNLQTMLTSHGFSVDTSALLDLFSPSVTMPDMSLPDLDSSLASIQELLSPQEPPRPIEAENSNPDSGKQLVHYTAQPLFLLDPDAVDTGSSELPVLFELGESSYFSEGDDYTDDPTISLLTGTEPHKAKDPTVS
# [13] = HEK-293T viability loss after treatment – luminescence, T-cell screen hits, cytotoxicity control for TCR NF-kB inhibitor project, dose response (AID 489026); format: functional, cell-based;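 also: cells exposed to compound about 14 hours before the viability readout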
# INS1 = test: INS-1E survival protection against cytokine death – cell-based, luminescence, retest, dose response (AID 449756); format: functional; settings: Rattus norvegicus;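 also: cell death triggered by IL-1 beta plus TNF-alpha plus IFN-gamma mixture; protective hits raise ATP signal compared with cytokine alone wells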
# [14] = biological target: Calcium/calmodulin-dependent protein kinase type II subunit gamma (Homo sapiens, UniProt Q13555); format: functional
# Aurora kinase B = Aurora kinase B (Homo sapiens, UniProt Q96GD4); format: functional
# [15] = biological target: Protein kinase C delta type (Homo sapiens, UniProt Q05655); format: functional
# [16] = biological target: Calcium/calmodulin-dependent protein kinase type II subunit beta (Homo sapiens, UniProt Q13554); format: functional
# Prothrombin = Prothrombin (Bos taurus, UniProt P00735); test: thrombin protease inhibitors – biochemical, fluorescence polarization, uHTS hits, dose response (AID 602369); format: functional
# [17] = biological target: 72 kDa type IV collagenase (Homo sapiens, UniProt P08253); test: Dose Response validation of uHTS RPN11 inhibitor hits using a MMP-2 Fluorescence assay.; format: functional
# [18] = biological target: 26S proteasome non-ATPase regulatory subunit 14 (Homo sapiens, UniProt O00487); test: inhibition of proteasome subunit RPN11 – biochemical, fluorescence polarization, uHTS hits, confirmation (AID 602368); format: functional
# Sequence of 26S proteasome non-ATPase regulatory subunit 14 (O00487 whole entry): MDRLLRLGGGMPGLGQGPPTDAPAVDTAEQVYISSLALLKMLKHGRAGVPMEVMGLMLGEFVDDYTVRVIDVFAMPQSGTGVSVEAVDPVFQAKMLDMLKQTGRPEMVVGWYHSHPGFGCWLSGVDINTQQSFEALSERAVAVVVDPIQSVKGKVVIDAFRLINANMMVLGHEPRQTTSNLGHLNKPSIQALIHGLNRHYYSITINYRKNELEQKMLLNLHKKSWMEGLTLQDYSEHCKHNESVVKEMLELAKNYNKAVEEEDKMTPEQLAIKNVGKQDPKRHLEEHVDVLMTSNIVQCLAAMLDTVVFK
# Sequence of Calcium/calmodulin-dependent protein kinase type II subunit gamma (Q13555 whole entry): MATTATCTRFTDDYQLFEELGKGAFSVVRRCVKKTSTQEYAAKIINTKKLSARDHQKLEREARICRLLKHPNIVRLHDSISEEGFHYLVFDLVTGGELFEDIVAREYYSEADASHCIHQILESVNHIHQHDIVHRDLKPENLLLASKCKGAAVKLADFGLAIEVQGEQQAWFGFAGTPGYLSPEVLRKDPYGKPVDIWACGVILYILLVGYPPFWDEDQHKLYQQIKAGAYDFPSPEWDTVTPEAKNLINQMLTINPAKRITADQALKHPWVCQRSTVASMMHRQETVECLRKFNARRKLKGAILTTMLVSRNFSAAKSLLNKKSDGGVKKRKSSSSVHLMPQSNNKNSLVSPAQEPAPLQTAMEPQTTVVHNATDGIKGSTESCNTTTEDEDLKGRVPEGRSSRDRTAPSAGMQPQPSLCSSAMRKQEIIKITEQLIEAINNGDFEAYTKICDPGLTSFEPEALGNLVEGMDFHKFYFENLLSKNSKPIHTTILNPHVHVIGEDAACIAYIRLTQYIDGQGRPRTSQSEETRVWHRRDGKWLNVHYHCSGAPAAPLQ
# Sequence of 72 kDa type IV collagenase (P08253 whole entry): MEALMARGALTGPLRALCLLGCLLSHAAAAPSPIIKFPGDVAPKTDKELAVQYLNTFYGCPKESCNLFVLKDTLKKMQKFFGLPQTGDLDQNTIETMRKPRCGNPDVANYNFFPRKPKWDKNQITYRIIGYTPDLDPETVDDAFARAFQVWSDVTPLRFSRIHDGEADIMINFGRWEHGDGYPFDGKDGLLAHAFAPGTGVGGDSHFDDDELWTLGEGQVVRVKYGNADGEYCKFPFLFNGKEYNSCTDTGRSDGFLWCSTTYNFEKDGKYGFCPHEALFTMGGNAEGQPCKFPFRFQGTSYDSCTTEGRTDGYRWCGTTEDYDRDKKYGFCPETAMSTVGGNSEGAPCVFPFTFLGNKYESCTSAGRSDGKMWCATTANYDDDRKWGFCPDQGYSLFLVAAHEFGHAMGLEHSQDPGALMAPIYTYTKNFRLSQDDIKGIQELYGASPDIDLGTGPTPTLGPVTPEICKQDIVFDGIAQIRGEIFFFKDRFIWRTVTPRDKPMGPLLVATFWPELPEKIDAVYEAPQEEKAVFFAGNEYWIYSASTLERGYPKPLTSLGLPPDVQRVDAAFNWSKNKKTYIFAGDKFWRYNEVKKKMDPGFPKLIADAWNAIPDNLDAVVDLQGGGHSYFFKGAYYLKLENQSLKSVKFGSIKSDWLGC
# Sequence of Cytochrome P450 3A4 (P08684 whole entry): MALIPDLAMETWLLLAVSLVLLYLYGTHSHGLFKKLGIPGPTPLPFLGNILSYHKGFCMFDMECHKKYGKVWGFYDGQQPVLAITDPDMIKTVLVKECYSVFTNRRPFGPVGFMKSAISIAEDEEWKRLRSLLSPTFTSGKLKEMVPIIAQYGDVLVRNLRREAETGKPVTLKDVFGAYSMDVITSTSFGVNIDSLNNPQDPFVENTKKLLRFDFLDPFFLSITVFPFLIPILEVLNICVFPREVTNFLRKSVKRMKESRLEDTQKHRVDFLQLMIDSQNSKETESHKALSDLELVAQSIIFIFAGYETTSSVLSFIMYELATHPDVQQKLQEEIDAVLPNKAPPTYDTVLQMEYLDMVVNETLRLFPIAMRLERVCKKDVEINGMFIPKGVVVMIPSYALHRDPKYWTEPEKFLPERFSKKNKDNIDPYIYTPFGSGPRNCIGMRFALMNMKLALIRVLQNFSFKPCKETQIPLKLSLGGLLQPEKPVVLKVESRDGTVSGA
# Sequence of Aurora kinase B (Q96GD4 whole entry): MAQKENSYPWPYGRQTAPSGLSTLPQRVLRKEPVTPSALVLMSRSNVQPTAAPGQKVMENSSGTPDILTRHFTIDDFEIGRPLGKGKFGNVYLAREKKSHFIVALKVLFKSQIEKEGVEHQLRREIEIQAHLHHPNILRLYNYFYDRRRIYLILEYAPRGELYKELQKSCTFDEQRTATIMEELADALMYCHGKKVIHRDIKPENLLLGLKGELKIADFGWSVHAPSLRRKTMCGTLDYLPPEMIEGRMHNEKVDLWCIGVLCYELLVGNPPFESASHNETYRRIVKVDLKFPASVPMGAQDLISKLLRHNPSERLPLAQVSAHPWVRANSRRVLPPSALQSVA
# Sequence of Luciferin 4-monooxygenase (P08659 whole entry): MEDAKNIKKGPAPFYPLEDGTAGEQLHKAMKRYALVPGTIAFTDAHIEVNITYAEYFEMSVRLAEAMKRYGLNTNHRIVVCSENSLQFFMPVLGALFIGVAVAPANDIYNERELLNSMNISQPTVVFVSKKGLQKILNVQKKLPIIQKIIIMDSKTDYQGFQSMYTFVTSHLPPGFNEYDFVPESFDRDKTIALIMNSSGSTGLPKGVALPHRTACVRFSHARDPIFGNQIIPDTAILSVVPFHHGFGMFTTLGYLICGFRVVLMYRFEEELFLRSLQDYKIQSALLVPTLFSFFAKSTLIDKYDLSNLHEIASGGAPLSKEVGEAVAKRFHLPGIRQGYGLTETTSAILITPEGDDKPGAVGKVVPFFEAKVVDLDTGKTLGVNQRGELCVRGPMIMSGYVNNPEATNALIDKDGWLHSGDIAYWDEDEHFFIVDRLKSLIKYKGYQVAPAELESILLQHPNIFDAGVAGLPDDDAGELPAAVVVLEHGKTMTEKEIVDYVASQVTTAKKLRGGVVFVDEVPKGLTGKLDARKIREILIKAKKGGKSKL
# Sequence of Calcium/calmodulin-dependent protein kinase type II subunit beta (Q13554 whole entry): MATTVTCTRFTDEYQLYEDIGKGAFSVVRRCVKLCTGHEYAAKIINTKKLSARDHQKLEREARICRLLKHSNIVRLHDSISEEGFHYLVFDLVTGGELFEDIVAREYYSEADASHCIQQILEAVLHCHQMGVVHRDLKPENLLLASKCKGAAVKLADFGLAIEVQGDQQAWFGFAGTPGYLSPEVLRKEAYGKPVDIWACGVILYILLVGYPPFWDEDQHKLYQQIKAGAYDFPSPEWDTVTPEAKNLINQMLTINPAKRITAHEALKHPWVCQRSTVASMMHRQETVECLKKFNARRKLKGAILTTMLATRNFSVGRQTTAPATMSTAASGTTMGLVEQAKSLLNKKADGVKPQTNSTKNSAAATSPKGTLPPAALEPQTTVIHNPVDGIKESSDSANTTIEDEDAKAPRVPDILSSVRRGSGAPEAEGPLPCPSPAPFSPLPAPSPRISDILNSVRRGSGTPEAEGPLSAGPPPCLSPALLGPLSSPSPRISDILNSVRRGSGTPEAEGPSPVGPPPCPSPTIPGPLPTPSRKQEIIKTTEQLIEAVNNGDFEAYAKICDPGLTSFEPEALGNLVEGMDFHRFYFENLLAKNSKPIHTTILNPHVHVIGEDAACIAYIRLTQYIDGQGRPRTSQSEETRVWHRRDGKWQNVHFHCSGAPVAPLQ
# Sequence of Protein kinase C delta type (Q05655 whole entry): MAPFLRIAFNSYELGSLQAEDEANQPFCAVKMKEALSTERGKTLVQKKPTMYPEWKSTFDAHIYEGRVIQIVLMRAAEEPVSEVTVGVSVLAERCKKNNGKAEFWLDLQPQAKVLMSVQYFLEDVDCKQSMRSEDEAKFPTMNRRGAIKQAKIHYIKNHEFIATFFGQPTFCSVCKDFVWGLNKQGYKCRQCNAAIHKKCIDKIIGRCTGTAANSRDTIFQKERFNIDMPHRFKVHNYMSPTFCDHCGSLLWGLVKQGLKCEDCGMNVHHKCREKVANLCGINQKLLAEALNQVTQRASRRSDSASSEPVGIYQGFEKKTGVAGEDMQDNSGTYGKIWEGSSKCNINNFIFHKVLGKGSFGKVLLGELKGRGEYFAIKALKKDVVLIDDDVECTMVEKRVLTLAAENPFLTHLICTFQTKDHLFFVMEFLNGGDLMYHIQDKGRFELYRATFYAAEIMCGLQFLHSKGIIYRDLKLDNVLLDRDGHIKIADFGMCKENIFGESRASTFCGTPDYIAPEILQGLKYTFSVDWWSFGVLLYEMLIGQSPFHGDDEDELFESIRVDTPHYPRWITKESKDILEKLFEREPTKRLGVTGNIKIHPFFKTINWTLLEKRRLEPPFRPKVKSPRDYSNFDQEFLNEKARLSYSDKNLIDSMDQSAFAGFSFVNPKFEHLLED
smiles,measurement,setting,value
CC(c1ccccn1)N(CCN(C)C)C(S)=Nc1cccc(F)c1 (configuration not stated),CC50,MDCK [1],> 40 µM (active)
same,IC50,MDCK [2],64.7 µM (active)
O=C(COc1ccccc1Cl)Nc1cc(Cl)ccc1Oc1ccccc1,AC50,Cytochrome P450 3A4,15.8 µM (inconclusive)
same,AC50,[3],120 µM (active)
same,AC50,[4],3.01 µM (active)
CCC(=O)Nc1cccc(NC(=O)c2ccccc2Br)c1,EC50,[5],4.32 µM (active)
same,AC50,[6],21.2 µM (active)
same,EC50,[7],< 1 µM (active)
same,EC50,[8],14 µM (active)
same,AC50,[9],< 3.12 µM (active)
same,EC50,[10],> 112 µM (not active)
Cc1cccc(N=Nc2ccc(O)c3ncccc23)c1,AC50,[11],3.91 µM (active)
same,EC50,[12],4.58 µM (active)
same,IC50,[13],> 80 µM (inactive)
same,AC50,INS1,1.78 µM (active)
Cc1cc(C(=O)NCCOCCOCCN)ccc1-c1cccc2c(CCCOc3cccc4ccccc34)c(C(=O)O)[nH]c12,Ki,[14],3.98 µM (active)
same,Ki,Aurora kinase B,3.98 µM (active)
same,Ki,[15],2.51 µM (active)
same,Ki,[16],5.01 µM (active)
O=C1c2cccc3cccc(c23)C(=O)N1c1ccc2ncccc2c1,IC50,Prothrombin,82.1 µM (active)
same,IC50,[17],23 µM (active)
same,IC50,[18],23.9 µM (active)
